Measurements as given in patent US8541344B2, “Compositions with cyclopropenes and metal-complexing agents” (Rohm and Haas Company, priority 2004, dated 2013).
Counter-ions that a name gives are not always drawn.

Assays:
[1] = tested on: Tomatoes (Rutgers 39 Variety); experiment: Tomato epinasty test; type: in vivo; settings: for % Control of Epinasty: foliar spray, 1-MCP 140 ppb, ethylene 14 ppm 12-14 hours
Procedure: Tomato epinasty tests were performed as follows:
Tomatoes (Rutgers 39 Variety Harris Seeds No 885 Lot 37729-A3) were grown in 2½″ square pots filled with a commercial potting mix. Two seeds were place in each pot. Plants that had expanded first true leaves and were between 3 and 5 inches high were used for the tomato epinasty test.
To conduct the assay, the plants were sprayed to run off with the test 1-MCP foliar spray and allowed to dry for 4 hours in sunlight These operations were performed in a ventilated area away from the plants growing in the greenhouse so there would not be any unintended treatment to growing plants destined for later experiments.
The 1-MCP treated plants and both treated and untreated controls were placed into an SLX controlled-atmosphere shipping box and sealed. To the box, ethylene was injected through a septum, which gave a concentration of 14 ppm. The plants were held sealed for 12-14 hours in the dark with ethylene in the atmosphere. At the end of ethylene treatment, the box was opened and scored for epinasty. Scoring for epinasty was accomplished by using the following scoring system for each pot. • 1. 0% no epinasty (100% control) • 2. 20% A couple leaves show some drooping (80% control) • 3. 50% Plants show 50% of full response. Not all leaves need to show effect. (50% control) • 4. 80% Almost all leaves drooping and some show underside of leaf exposed on top. (20% control) • 5. 100% Leaves completely drooping and the underside of the leaf exposed from above. (0% control)
The score of each pot is recorded. The average of 6 or 8 pots is averaged to get a score. The percentage improvement is calculated by interpolating the percentage improvement from the control water (i.e., no additives) 1-MCP treatment.
Tomato epinasty tests were conducted using a formulation that included water; a 1-MCP α-CD complex that contained 0.14% 1-MCP by weight, based on the weight of the 1-MCP α-CD complex; and sodium salt of EDTA. The amount of 1-MCP α-CD complex was chosen so that the formulation had 140 ppb of 1-MCP. Also included in the formulation were an anionic surfactant (0.1% by weight based on the weight of the formulation), isopropanol (1% by weight based on the weight of the formulation), and a spray oil (1% by weight based on the weight of the formulation).

[2] = Cyclopropene release measurement (headspace gas chromatography); type: physicochemical; settings: for effect on % release of 1-MCP (in words): compared to the 13% with no agent
Procedure: Cyclopropene Headspace Measurement Method:
A composition containing water and cyclopropene was sealed in a bottle equipped with a septum in a manner that leaves a portion of the volume of the bottle filled with gas; a portion of the headspace was analyzed for cyclopropene at 1 hour after injection. The analysis method was gas chromatography using the following parameters:
Cyclopropene Release Measurement
The release of cyclopropene from a mixture of water and cyclopropene was measured as follows.
From the measure concentration of cyclopropene in the headspace and the amount of cyclopropene added to the bottle, the fraction of the total amount of cyclopropene in the bottle that resides in the headspace can be calculated and reported as a percentage based on the amount of cyclopropene added to the bottle.

[3] = deionized water #1, 5 ppm copper ion, metal-complexing agent 1 mM
[4] = deionized water #1, 5 ppm copper ion, metal-complexing agent 5 mM
[5] = deionized water #1, 5 ppm copper ion, metal-complexing agent 10 mM

**Q.** Which “control of epinasty (in words)” value ([1]; deionized water with 1-MCP) does the source give for `CC1=CC1` [1-MCP, 1-methylcyclopropene, reference compound] here?
**A.** The value was “does control epinasty”.

**Q.** What about the “% Control of Epinasty” value ([1]; de-ionized water, EDTA 0 mM) of the same molecule?
**A.** Its value is 100%.

**Q.** What about the “% Control of Epinasty” value ([1]; well water, EDTA 0 mM) of the same molecule?
**A.** The value was 0%.

**Q.** What about the “% Control of Epinasty” value ([1]; well water, EDTA 0.003 mM) of the same molecule?
**A.** Its value is 80%.

**Q.** And the “control of epinasty (in words)” value ([1]; well water with 1-MCP)?
**A.** Its value is “does not control epinasty”.

**Q.** And the “control of epinasty (in words)” value ([1]; well water with 1-MCP and sodium salt of EDTA)?
**A.** The value was “does control epinasty”.

**Q.** What about the “% Release of 1-MCP” value ([2]; 1-MCP α-CD complex in deionized #1 water, no metal-complexing agent) of the same molecule?
**A.** Its value is 100%.

**Q.** And the “% Release of 1-MCP” value ([2]; 1-MCP α-CD complex in deionized #2 water, no metal-complexing agent)?
**A.** Its value is 60%.

**Q.** What about the “% Release of 1-MCP” value ([2]; 1-MCP α-CD complex in filtered (MilliQ) water, no metal-complexing agent) of the same molecule?
**A.** The value was 100%.

**Q.** What about the “% Release of 1-MCP” value ([2]; 1-MCP α-CD complex in tap #1 water, no metal-complexing agent, headspace at 1 hour) of the same molecule?
**A.** The value was 60%.

**Q.** What about the “% Release of 1-MCP” value ([2]; 1-MCP α-CD complex in tap #2 water, no metal-complexing agent, headspace at 1 hour) of the same molecule?
**A.** Its value is 13%.

**Q.** And the “activity of 1-MCP (in words)” value ([2]; copper ions without sodium salt of EDTA)?
**A.** Its value is “reduction in activity”.

**Q.** What about the “activity of 1-MCP (in words)” value ([2]; copper ions, sodium salt of EDTA added 2 hours after the 1-MCP α-CD complex) of the same molecule?
**A.** The value was “fails to maintain the activity”.

**Q.** What about the “activity of 1-MCP (in words)” value ([2]; copper ions, sodium salt of EDTA added to the water before the 1-MCP α-CD complex) of the same molecule?
**A.** The value was “maintains the full activity”.

**Q.** What about the “% Release of 1-MCP” value ([2]; deionized water #1, copper ions 0 ppm, sodium salt of EDTA 0 mM) of the same molecule?
**A.** Its value is 100%.

**Q.** What about the “% Release of 1-MCP” value ([2]; deionized water #1, copper ions 1 ppm, sodium salt of EDTA 0 mM) of the same molecule?
**A.** The value was 54%.

**Q.** And the “% Release of 1-MCP” value ([2]; deionized water #1, copper ions 5 ppm, sodium salt of EDTA 0 mM)?
**A.** Its value is 36%.

**Q.** What about the “% Release of 1-MCP” value ([2]; deionized water #1, copper ions 5 ppm, sodium salt of EDTA 11 mM added 2 hours after 1-MCP α-CD complex, headspace 1 hour later) of the same molecule?
**A.** The value was 37%.

**Q.** What about the “% Release of 1-MCP” value ([2]; deionized water #1, copper ions 5 ppm, sodium salt of EDTA 11 mM added before the 1-MCP α-CD complex) of the same molecule?
**A.** Its value is 100%.

**Q.** What about the “% Release of 1-MCP” value ([2]; deionized water #1, copper ions 10 ppm (cupric sulfate), sodium salt of EDTA 0 mM) of the same molecule?
**A.** The value was 10%.

**Q.** With `O=C(O)CC(O)(CC(=O)O)C(=O)O` [Citric Acid, citric acid] as the molecule, how does the “% Release of 1-MCP” value ([2]; tap #2 water, citric acid 1 milliMolar added first) read?
**A.** Its value is 63%.

**Q.** And the “% Release of 1-MCP” value ([2]; tap #2 water, citric acid 10 milliMolar added first)?
**A.** The value was 100%.

**Q.** And the “% Release of 1-MCP” value ([2]; tap #2 water, citric acid 100 milliMolar added first)?
**A.** Its value is 92%.

**Q.** And the “effect on % release of 1-MCP (in words)” value ([2]; tap #2 water)?
**A.** Its value is “improves the % release dramatically”.

**Q.** Which “effect on % release of 1-MCP (in words)” value ([2]; tap #2 water) does the source give for `O=C(O)CN(CCN(CC(=O)O)CC(=O)O)CC(=O)O` [Sodium Salt of EDTA, ethylenediaminetetraacetic acid] here?
**A.** The value was “improves the % release dramatically”.

**Q.** And the “% Release of 1-MCP” value ([2]; tap #2 water, sodium salt of EDTA 0.00001 milliMolar)?
**A.** The value was 87%.

**Q.** What about the “% Release of 1-MCP” value ([2]; tap #2 water, sodium salt of EDTA 0.0001 milliMolar) of the same molecule?
**A.** Its value is 100%.

**Q.** What about the “% Release of 1-MCP” value ([2]; tap #2 water, sodium salt of EDTA 0.001 milliMolar) of the same molecule?
**A.** Its value is 100%.

**Q.** What about the “% Release of 1-MCP” value ([2]; tap #2 water, sodium salt of EDTA 0.01 milliMolar) of the same molecule?
**A.** The value was 100%.

**Q.** What about the “% Release of 1-MCP” value ([2]; tap #2 water, sodium salt of EDTA 0.1 milliMolar) of the same molecule?
**A.** The value was 100%.

**Q.** And the “% Release of 1-MCP” value ([2]; tap #2 water, sodium salt of EDTA 1 milliMolar)?
**A.** The value was 100%.

**Q.** And the “% Release of 1-MCP” value ([2]; tap #2 water, sodium salt of EDTA 10 milliMolar)?
**A.** The value was 100%.

**Q.** With `O=C(O)C(O)C(O)C(=O)O` (centres unmarked) [Tartaric acid, tartaric acid] as the molecule, how does the “% Release of 1-MCP” value [2, 3] read?
**A.** Its value is 99%.

**Q.** And the “% Release of 1-MCP” value [2, 4]?
**A.** Its value is 85%.

**Q.** And the “% Release of 1-MCP” value [2, 5]?
**A.** The value was 92%.

**Q.** With `O=C(O)CN(CC(=O)O)CC(=O)O` [nitrilotriacetic acid] as the molecule, how does the “% Release of 1-MCP” value [2, 3] read?
**A.** Its value is 97%.

**Q.** And the “% Release of 1-MCP” value [2, 4]?
**A.** Its value is 100%.

**Q.** And the “% Release of 1-MCP” value [2, 5]?
**A.** Its value is 95%.

**Q.** With `O=C([O-])[O-].[Na+].[Na+]` [sodium carbonate] as the molecule, how does the “% Release of 1-MCP” value [2, 3] read?
**A.** Its value is 61%.

**Q.** What about the “% Release of 1-MCP” value [2, 4] of the same molecule?
**A.** The value was 68%.

**Q.** And the “% Release of 1-MCP” value [2, 5]?
**A.** Its value is 71%.

**Q.** What does the source list for `O=P([O-])([O-])OP(=O)([O-])[O-].[Na+].[Na+].[Na+].[Na+]` [tetrasodium pyrophosphate]?
**A.** % Release of 1-MCP [2, 3]: 42%; % Release of 1-MCP [2, 4]: 39%; % Release of 1-MCP [2, 5]: 54%
